Columns and labels:
[1] = target: T1, Thyroid hormone receptor alpha (Homo sapiens, UniProt P10827); assay: Binding affinity to TRalpha1
T1 sequence (P10827 whole entry): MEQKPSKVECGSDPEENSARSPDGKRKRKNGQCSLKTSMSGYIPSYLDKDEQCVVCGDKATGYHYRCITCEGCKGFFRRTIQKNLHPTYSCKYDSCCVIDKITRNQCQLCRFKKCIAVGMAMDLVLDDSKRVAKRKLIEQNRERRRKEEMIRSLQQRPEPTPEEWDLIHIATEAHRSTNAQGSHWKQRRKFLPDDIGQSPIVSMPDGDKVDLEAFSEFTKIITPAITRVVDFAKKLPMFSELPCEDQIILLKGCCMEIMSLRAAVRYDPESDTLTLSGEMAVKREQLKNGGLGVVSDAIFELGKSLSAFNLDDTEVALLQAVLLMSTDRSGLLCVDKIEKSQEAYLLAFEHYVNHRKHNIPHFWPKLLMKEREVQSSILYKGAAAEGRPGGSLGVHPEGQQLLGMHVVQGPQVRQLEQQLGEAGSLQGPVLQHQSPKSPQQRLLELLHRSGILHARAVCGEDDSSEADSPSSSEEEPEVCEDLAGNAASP

[2] = target: T2, Thyroid hormone receptor beta (Homo sapiens, UniProt P10828); assay: Binding affinity to TRbeta1
T2 sequence (P10828 whole entry): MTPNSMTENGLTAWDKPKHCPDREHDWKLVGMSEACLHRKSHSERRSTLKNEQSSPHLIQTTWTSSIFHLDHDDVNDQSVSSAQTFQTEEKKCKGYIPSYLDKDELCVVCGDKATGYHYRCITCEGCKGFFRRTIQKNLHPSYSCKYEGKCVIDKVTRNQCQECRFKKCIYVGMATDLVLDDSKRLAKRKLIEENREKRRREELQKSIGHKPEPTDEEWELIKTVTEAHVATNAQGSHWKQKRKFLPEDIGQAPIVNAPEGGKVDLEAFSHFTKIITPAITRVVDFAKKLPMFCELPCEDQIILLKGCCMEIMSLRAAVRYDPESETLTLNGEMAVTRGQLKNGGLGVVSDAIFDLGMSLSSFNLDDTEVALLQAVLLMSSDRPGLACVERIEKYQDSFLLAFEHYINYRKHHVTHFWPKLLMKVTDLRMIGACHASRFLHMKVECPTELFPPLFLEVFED

Homo sapiens [3] = assay: Antidyslipidemic activity in obese, hypercholesterolemic patient assessed as reduction in LDL cholesterol at 100 ug administered QD for 2 weeks relative to control; format: functional; set-up: scale not given: the % may be the effect or the level left
Rattus norvegicus = assay: Antidyslipidemic activity in po dosed cholesterol fed rat assessed as reduction in cholesterol level administered QD; format: functional
Homo sapiens [4] = assay: Antidyslipidemic activity in human assessed as reduction in LDL cholesterol at 100 ug administered QD relative to control; format: functional; set-up: scale not given: the % may be the effect or the level left

EC50 [1] [nM] | EC50 [2] [nM] | Compound | also measured
18 | 0.47 | O=C(O)Cc1cc(Cl)c(Oc2ccc(O)c(C(=O)NCC(c3ccccc3)c3ccccc3)c2)c(Cl)c1 | 
152 | 2.9 | O=C(O)Cc1cc(Cl)c(Oc2ccc(O)c(-c3ccccc3)c2)c(Cl)c1 | 
 |  | CC(C)c1cc(Oc2c(Br)cc(NC(=O)CC(=O)O)cc2Br)ccc1O [EPROTIROME] | Activity (Homo sapiens [3]): 40%
 |  | Cc1cc(OCP2(=O)OCC[C@@H](c3cccc(Cl)c3)O2)cc(C)c1Cc1ccc(O)c(C(C)C)c1 (stereo partly drawn) [MB07811] | Ki [2]: 600 nM; ED50 (Rattus norvegicus): 0.4 mg/kg
 |  | Cc1cc(OCC(=O)O)cc(C)c1Cc1ccc(O)c(C(C)C)c1 [SOBETIROME] | Activity (Homo sapiens [4]): 41%

Source: ChEMBL document CHEMBL2203261, “Selective thyromimetics using receptor and tissue selectivity approaches: prospects for dyslipidemia” (J Med Chem, 2012)
